US20230407243A1, “GENETIC PLATFORM TO INVESTIGATE THE FUNCTIONS OF BACTERIAL DRUG EFFLUX PUMPS” (priority 2022, published 2023)
Like-named read-outs stand apart in the source and are kept apart here.

Key:
Format in all cases: cell-based, Escherichia coli
[1] = tested on: EKO-35 acrBD408A
In short: (§1)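 Checkerboard broth microdilution in MHB II followed CLSI guidelines, with MIC defined as the lowest concentration giving no growth by OD600. FICI was calculated as CA/MICA + CB/MICB for PAβN or NMP combined with an antibiotic, with <0.5 classed as synergistic. Efflux-attributed fold resistance is the strain MIC divided by the EKO-35 MIC.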

[2] = tested on: EKO-35
In short: as §1

[3] = tested on: wild-type E. coli K-12
In short: as §1

[4] = tested on: ΔtolC-Pore
In short: as §1

[5] = tested on: ΔtolC
In short: as §1

[6] = tested on: EKO-35 porinated strain expressing acrB; assay: Checkerboard synergy (FICI), porinated strain
In short: as §1

[7] = tested on: EKO-35-Pore acrBD408A (functionally inactive AcrB variant); assay: Checkerboard synergy (FICI), porinated strain
In short: as §1

[8] = tested on: EKO-35-Pore; assay: Checkerboard synergy (FICI), porinated strain
In short: as §1

[9] = tested on: wild-type K-12-Pore; assay: Checkerboard synergy (FICI), porinated strain
In short: as §1

[10] = EKO-35 acrBD408A, NMP + antibiotic
[11] = EKO-35 acrBD408A, PAβN + antibiotic
[12] = strain EKO-35 acrBD408A, NMP + antibiotic
[13] = strain EKO-35, NMP + antibiotic
[14] = strain ΔtolC Pore, NMP + antibiotic
[15] = EKO-35 acrB Pore, NMP + antibiotic
[16] = EKO-35 acrB Pore, PAβN + antibiotic
[17] = strain EKO-35 acrB Pore, NMP + antibiotic
[18] = EKO-35 acrBD408A Pore, NMP + antibiotic
[19] = EKO-35 acrBD408A Pore, PAβN + antibiotic
[20] = strain EKO-35 acrBD408A Pore, NMP + antibiotic
[21] = strain EKO-35 Pore, NMP + antibiotic
[22] = strain K-12 Pore, NMP + antibiotic

CC(=O)O[C@H]1C[C@@]2(C)[C@@H](C[C@@H](O)[C@H]3[C@@]4(C)CC[C@@H](O)[C@@H](C)[C@@H]4CC[C@@]32C)/C1=C(\CCC=C(C)C)C(=O)O [fusidic acid]
Synergistic: Effect [1, 10] | Effect [1, 11] | Effect ([2]; EKO-35, PAβN + antibiotic) | Effect ([3]; K-12, NMP + antibiotic) | Effect ([3]; K-12, PAβN + antibiotic) | Effect ([4]; ΔtolC Pore, PAβN + antibiotic) | Effect ([5]; ΔtolC, PAβN + antibiotic) | Effect [6, 15] | Effect [6, 16] | Effect [7, 19] | Effect ([8]; EKO-35 Pore, PAβN + antibiotic) | Effect ([9]; K-12 Pore, NMP + antibiotic) | Effect ([9]; K-12 Pore, PAβN + antibiotic)
Synergistic (Synergy (FICI ≤0.5)): Effect [1, 12] | Effect ([3]; strain K-12, NMP + antibiotic) | Effect [6, 17] | Effect [9, 22]
1 µg/mL: MICb Combined ([1]; strain EKO-35 acrBD408A, antibiotic in combination with NMP) | MICb Combined ([4]; strain ΔtolC Pore, antibiotic in combination with NMP) | MICb Alone ([7]; EKO-35 acrBD408A Pore, antibiotic alone (PAβN checkerboard)) | MICb Alone ([8]; EKO-35 Pore, antibiotic alone (PAβN checkerboard))
enhancing the activity: potentiation of the labelled compound by NMP ([6]; porinated strain producing AcrB)
32 µg/mL: MICb Combined ([3]; K-12, antibiotic in combination with PAβN) | MICb Combined ([9]; K-12 Pore, antibiotic in combination with PAβN)
0.620: FICI ([8]; EKO-35 Pore, NMP + antibiotic) | FICI [8, 21]
synergy was maintained: interaction of PAβN in combination with the labelled antibiotic (FICI) ([8]; porinated efflux-deficient strains)
1024 µg/mL: MICb Alone ([3]; K-12, antibiotic alone (PAβN checkerboard)) | MICb Alone ([3]; strain K-12, antibiotic alone)
0.06 µg/mL: MICb Combined ([8]; EKO-35 Pore, antibiotic in combination with PAβN) | MICb Combined ([8]; strain EKO-35 Pore, antibiotic in combination with NMP)
0.188: FICI ([9]; K-12 Pore, PAβN + antibiotic)
4 µg/mL: MICb Alone ([1]; EKO-35 acrBD408A, antibiotic alone (PAβN checkerboard)) | MICb Alone ([1]; strain EKO-35 acrBD408A, antibiotic alone) | MICb Alone ([2]; EKO-35, antibiotic alone (PAβN checkerboard)) | MICb Alone ([2]; strain EKO-35, antibiotic alone) | MICb Alone ([5]; strain ΔtolC, antibiotic alone)
0.250: FICI [1, 11]
0.310: FICI ([8]; EKO-35 Pore, PAβN + antibiotic)
128 µg/mL: MICb Combined ([3]; strain K-12, antibiotic in combination with NMP)
0.13 µg/mL: MICb Combined ([2]; EKO-35, antibiotic in combination with PAβN) | MICb Combined ([7]; EKO-35 acrBD408A Pore, antibiotic in combination with PAβN)
Additive: Effect ([2]; EKO-35, NMP + antibiotic) | Effect ([4]; ΔtolC Pore, NMP + antibiotic) | Effect ([5]; ΔtolC, NMP + antibiotic) | Effect [7, 18] | Effect ([8]; EKO-35 Pore, NMP + antibiotic)
0.158: FICI ([2]; EKO-35, PAβN + antibiotic)
0.25 µg/mL: MICb Combined ([4]; ΔtolC Pore, antibiotic in combination with PAβN) | MICb Combined ([5]; ΔtolC, antibiotic in combination with PAβN) | MICb Combined ([7]; strain EKO-35 acrBD408A Pore, antibiotic in combination with NMP)
Additive (additive (FICI >0.5-1.0)): Effect [2, 13] | Effect [4, 14] | Effect ([5]; strain ΔtolC, NMP + antibiotic) | Effect [7, 20] | Effect [8, 21]
0.129: FICI [6, 16]
0.5 µg/mL: MICb Combined ([1]; EKO-35 acrBD408A, antibiotic in combination with PAβN) | MICb Combined ([2]; strain EKO-35, antibiotic in combination with NMP) | MICb Combined ([5]; strain ΔtolC, antibiotic in combination with NMP) | MICb Alone ([7]; strain EKO-35 acrBD408A Pore, antibiotic alone) | MICb Alone ([8]; strain EKO-35 Pore, antibiotic alone)
0.625: FICI ([2]; EKO-35, NMP + antibiotic) | FICI [2, 13] | FICI ([5]; strain ΔtolC, NMP + antibiotic) | FICI ([5]; ΔtolC, NMP + antibiotic)
0.750: FICI [4, 14] | FICI ([4]; ΔtolC Pore, NMP + antibiotic) | FICI [7, 18] | FICI [7, 20]
0.156: FICI ([3]; K-12, PAβN + antibiotic)
2 µg/mL: MICb Alone ([4]; strain ΔtolC Pore, antibiotic alone) | MICb Alone ([4]; ΔtolC Pore, antibiotic alone (PAβN checkerboard)) | MICb Alone ([5]; ΔtolC, antibiotic alone (PAβN checkerboard)) | MICb Combined ([6]; EKO-35 acrB Pore, antibiotic in combination with PAβN)
512 µg/mL: MICb Alone ([6]; EKO-35 acrB Pore, antibiotic alone (PAβN checkerboard)) | MICb Alone ([6]; strain EKO-35 acrB Pore, antibiotic alone) | MICb Alone ([9]; K-12 Pore, antibiotic alone (PAβN checkerboard)) | MICb Alone ([9]; strain K-12 Pore, antibiotic alone)
0.500: FICI [1, 10] | FICI [1, 12] | FICI [6, 15] | FICI [6, 17] | FICI ([9]; K-12 Pore, NMP + antibiotic) | FICI [9, 22]
0.255: FICI [7, 19]
0.375: FICI ([3]; K-12, NMP + antibiotic) | FICI ([3]; strain K-12, NMP + antibiotic) | FICI ([4]; ΔtolC Pore, PAβN + antibiotic) | FICI ([5]; ΔtolC, PAβN + antibiotic)
synergized: interaction of PAβN in combination with the labelled antibiotic (FICI) ([2]; efflux-deficient strains EKO-35, EKO-35 acrBD408A, ΔtolC)
